Results reported in patent US5326902A, “Oxyalkyne compounds, pharmaceutical compositions containing them and processes for preparing such compounds and compositions” (Gruenenthal GmbH, priority 1992, dated 1994).

What was measured:
[1] = target: T1, 5-lipoxygenase (Rattus norvegicus, UniProt P12527); assay: Inhibition of Cell-free 5-lipoxygenase from RBL-1-cells (polarographic, 10,000 × g supernatant); type: biochemical; conditions: 10,000 × g supernatant of homogenized RBL-1-cells; arachidonic acid 75 μM; 35° C.; calculated IC50
T1 construct: endogenous in cells; host or cells: RBL-1 cells (rat basophilic leukemia)
T1 sequence (P12527 1-673): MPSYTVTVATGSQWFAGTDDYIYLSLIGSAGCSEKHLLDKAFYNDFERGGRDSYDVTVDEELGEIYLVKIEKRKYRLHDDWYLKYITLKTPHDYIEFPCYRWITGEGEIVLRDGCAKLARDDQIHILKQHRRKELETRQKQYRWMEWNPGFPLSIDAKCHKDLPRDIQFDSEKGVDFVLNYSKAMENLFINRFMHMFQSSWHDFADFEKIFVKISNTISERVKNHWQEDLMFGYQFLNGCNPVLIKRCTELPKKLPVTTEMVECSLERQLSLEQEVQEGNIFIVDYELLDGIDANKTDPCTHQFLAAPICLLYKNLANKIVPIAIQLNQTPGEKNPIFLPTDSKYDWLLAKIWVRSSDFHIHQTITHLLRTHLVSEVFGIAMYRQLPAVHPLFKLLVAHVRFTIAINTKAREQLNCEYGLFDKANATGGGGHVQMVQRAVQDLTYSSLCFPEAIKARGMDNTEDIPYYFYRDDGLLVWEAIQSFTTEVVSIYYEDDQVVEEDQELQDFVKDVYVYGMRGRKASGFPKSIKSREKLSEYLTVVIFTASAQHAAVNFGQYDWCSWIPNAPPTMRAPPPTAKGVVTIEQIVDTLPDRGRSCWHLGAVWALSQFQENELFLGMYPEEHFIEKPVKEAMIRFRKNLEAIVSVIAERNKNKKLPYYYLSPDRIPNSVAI
Protocol: Cell-free 5-lipoxygenase was polarographically measured from 10,000 × g supernatant of homogenized rat basophilic leucemia cells (M. Haurand & L. Flohe in Biol. Chem. Hoppe-Seyler 369, 133 to 142 (1988)). After preincubation of the 10,000 × g supernatant with arachidonic acid (75 μM), ATP (adenosine triphosphate; 4 mM), reduced glutathione (4 mM), and either a compound according to the invention (0.1 to 100 μM) or a solvent (ethanol and/or dimethyl sulfoxide) at 35° C. for 5 minutes, the lipoxygenase reaction was initiated by addition of calcium chloride (3 mM) and simultaneously recorded.
The activity of 5-lipoxygenase was determined from the difference in the pO2 -decrease before and after addition of calcium chloride. The evaluation included the initial rate of the reaction after the lag-phase as well as the duration of the lag-phase. In the concentration range of from 3 to 50 μM, the test substances induced lag-phases between 20 and 60 seconds.

[2] = target: T1, 5-lipoxygenase; assay: Inhibition of 5-lipoxygenase in RBL-1-cells; type: cell-based; conditions: 20 μM [14C]-arachidonic acid, 20 μM calcium ionophore A 23 187, 10 minutes
Protocol: To determine the inhibition of 5-lipoxygenase, rat basophilic leukemia cells (RBL-1-cells) were cultured in vitro, harvested by centrifugation, washed with 50 mM potassium phosphate buffer of pH 7.4, and then suspended in this buffer at 1×10^7 cells/ml. Indomethacin (10 μM) and calcium chloride (2 mM) were added to 1 ml portions of this suspension, and then the mixture was incubated either in the presence of a compound according to the invention in a concentration range of from 0,1 μM to 100 μM or in the presence of a solvent (ethanol and/or dimethyl sulfoxide) for 3 minutes and thereafter with 20 μM of [^14 C]-arachidonic acid and 20 μM of calcium ionophore A 23 187 for 10 minutes. The reaction was stopped by adding 20 μl of glacial acetic acid, and then the mixture was extracted with ethyl acetate to isolate the metabolites of arachidonic acid formed by the enzymatic action of 5-lipoxygenase. These were separated by thin layer chromatography using a solvent mixture known to be suitable for lipoxygenase products [c.f. Jakschik et al., Biochem. Biophys. Res. Commun. 102, 624 (1981)].
The distribution of radioactivity among the different metabolites of arachidonic acid was measured using a TLC Linear Analyzer. By correlating the percentage amounts of the products formed under the action of 5-lipoxygenase (5HETE, isomers of LTB4) in the absence as well as in the presence of different concentrations of compounds according to the invention, the IC50 -values, i.e. the concentrations which cause a 50% inhibition of 5-lipoxygenase, were determined graphically from semilogarithmic plots.

[3] = system: bronchoconstriction elicited by ovalbumin; assay: Allergen-induced bronchoconstriction in guinea pigs (Konzett-Rossler); type: in vivo, guinea pig; conditions: Cavia porcellus, 1 h; oral, 60 minutes before ovalbumin (0.2 mg/kg intravenous); passively sensitized guinea pigs; read-out: ED40-Value (40% average inhibition of the bronchoconstriction elicited by ovalbumin)
Protocol: The anti-asthmatic effect of compounds according to the invention was tested in anesthetized and ventilated guinea pigs. To induce an asthmatic reaction, the animals were passively sensitized by a single intraperitoneal injection of anti-ovalbumin serum. After 48 hours, the asthmatic reaction was elicited by intravenous challenge with 0.2 mg/kg of ovalbumin. The immediately resulting bronchoconstriction was measured as an increase in intratracheal pressure. Effects caused by histamine, serotonin and sympathic counterreaction were eliminated by intravenous pretreatment with 2.15 mg/kg of mepyramine, 46.4 μg/kg of propranolol, 4.64 mg/kg of atropine and 1 mg/kg of methysergide, all administered 5 minutes before challenge. Compounds according to the invention were administered orally 60 minutes before the administration of ovalbumin. The following […] for the inhibition of the bronchoconstriction elicited by ovalbumin, i.e. the effective doses causing a 40% average inhibition of the bronchoconstriction, were determined: […]

[4] = system: 5-lipoxygenase; assay: Inhibition of 5-lipoxygenase in Rat Blood After Oral Administration (ex vivo iLTB4-formation); conditions: 21.5 mg/kg oral, male Wistar rats, one hour after administration
Protocol: The bioavailability of the compounds of formula I as 5-lipoxygenase inhibitors was characterized by means of an ex vivo biochemical assay method described by Tateson et al. in Brit. J. Pharmacol. 94, 528 (1988): A compound of formula I was orally administered to male rats (Wistar strain) at a dose of 21.5 mg/kg. After lethal CO2 -narcosis one hour after administration, the rats were bled by heart puncture with added heparin as an anticoagulant. Aliquots of the whole blood were incubated at 37° C. for 30 minutes in a water bath with calcium ionophore A 23 187 at an end concentration of 15 μg/ml. At the end of the incubation, the samples were centrifuged, and the concentration of the immunoreactive LTB4 (iLTB4) in aliquots of cell-free plasma was determined by radioimmunoassay (3H-LTB4 -RIA, Amersham). To enable calculation of the inhibition in percent of ex vivo iLTB4 -formation in whole rat blood treated with a compound according to the invention, rats orally treated with an appropriate vehicle solution were included in all experiments, and aliquots of their blood were run in parallel and were processed in the same way as described. The average iLTB4 -content of the plasma of the vehicletreated rats served as a 100% value. The activity in percent of the ex vivo iLTB4 -formation after oral administration of a compound according to the invention was calculated by dividing the average value of the iLTB4 -contents in ng iLTB4 /ml of the group treated with a compound according to the invention by the average value of the iLTB4 -contents in ng iLTB4 /ml of the vehicle treated group and subsequent multiplication by a factor of 100. The respective inhibition in percent was calculated by subtracting the activity in percent from 100.

[5] = target: T2, 12-lipoxygenase (Homo sapiens, UniProt P18054); assay: Inhibition of 12-lipoxygenase in human blood; type: cell-based; design: 3 ml aliquots of human whole blood treated with heparin; from tissue; host or cells: human whole blood (heparinized); conditions: human whole blood; calcium ionophore A 23 187 15 μg/ml; 37° C., 30 minutes; 12-HETE by HPLC
T2 sequence (P18054 1-663): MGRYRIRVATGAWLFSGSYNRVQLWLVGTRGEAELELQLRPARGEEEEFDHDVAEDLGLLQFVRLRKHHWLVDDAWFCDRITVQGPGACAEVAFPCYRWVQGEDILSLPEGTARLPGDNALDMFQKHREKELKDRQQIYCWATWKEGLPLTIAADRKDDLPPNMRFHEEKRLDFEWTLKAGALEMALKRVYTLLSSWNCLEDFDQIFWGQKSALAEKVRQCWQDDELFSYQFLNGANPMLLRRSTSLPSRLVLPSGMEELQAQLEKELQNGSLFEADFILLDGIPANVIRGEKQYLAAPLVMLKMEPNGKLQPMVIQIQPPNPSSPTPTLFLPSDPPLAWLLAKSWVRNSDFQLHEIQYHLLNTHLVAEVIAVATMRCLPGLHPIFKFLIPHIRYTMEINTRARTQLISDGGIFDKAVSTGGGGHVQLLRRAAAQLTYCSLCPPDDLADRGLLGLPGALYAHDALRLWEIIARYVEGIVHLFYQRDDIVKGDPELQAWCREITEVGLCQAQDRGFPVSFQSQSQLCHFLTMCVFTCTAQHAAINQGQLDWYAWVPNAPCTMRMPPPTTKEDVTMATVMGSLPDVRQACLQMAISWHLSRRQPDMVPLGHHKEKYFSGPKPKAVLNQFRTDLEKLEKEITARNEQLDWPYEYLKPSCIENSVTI
Protocol: 3 ml aliquots of human whole blood treated with heparin were incubated either with a compound according to the invention or with dimethyl sulfoxide at 37° C. for 5 minutes. Then 12-lipoxygenase was activated by addition of calcium ionophore A 23 187 (15 μg/ml blood). After incubation at 37° C. for 30 minutes and centrifugation, cell-free plasma was obtained. Plasma protein was precipitated by addition of 2 ml of ethanol per ml of plasma and then separated by centrifugation. After adjusting the ethanol content in the supernatant with water to 10% by volume, the 12-lipoxygenase product 12-HETE was enriched by solid phase extraction using an octadecyl silica column. The methanolic eluate was evaporated to dryness, diluted in 40% by volume of methanol, and the 12-HETE-content was determined by HPLC. The IC50 -values of the compounds of the invention prepared according to Examples 1, 8 and 16 were 2, 4 and 3 μmolar, respectively.

| IC50 [1] [µM] | IC50 [2] [µM] | IC50 [5] [µM] | SMILES | ED40 [3] [mg/kg] | Inhibition [%] of ex vivo iLTB4-formation [4] [%] |
| --- | --- | --- | --- | --- | --- |
| 3 | 3 | – | NC(=O)N(O)Cc1ccc(C(O)C#Cc2ccc(F)cc2)cc1 (racemic) [Example 25, N-Hydroxy-N-[4-[1-hydroxy-3-(4-fluorophenyl)prop-2-yn-1-yl]benzyl]urea] | 10 | – |
| 8 | 7 | 4 | NC(=O)N(O)Cc1ccc(C(O)C#Cc2ccccc2)cc1 (stereo not shown) [Example 8, N-Hydroxy-N-[4-[1-hydroxy-3-phenyl-prop-2-yn-1-yl]benzyl]urea] | – | 65 |
| 6 | 3 | 3 | CC(=O)N(O)Cc1ccc(C(O)C#Cc2cccs2)cc1 (stereo not shown) [Example 16, N-Hydroxy-N-[4-[1-hydroxy-3-(2-thienyl)prop-2-yn-1-yl]benzyl]acetamide] | – | – |
